The test system of data set [1] is C57 and BTBR mice. The data set can be described thus: Social preference procedure: social novelty preference test. In kind it is in vivo, mouse. How it is done: (§1) All drugs were dissolved in physiological 0.9% saline and administered at a constant volume of 1 ml/100 g body weight. Because all drugs utilized in these studies were synthesized as hydrochloride (HCl) salts, they were weighed as salts prior to the preparation of all solutions. All drugs at all concentrations are readily dissolved in an aqueous solution at normal pH. Injections of all drugs were administered intraperitoneally (IP) to mimic pharmacokinetic parameters typical of oral administration, without the behaviour-impairing effects of gavage stress.
(§2) This assay was conducted in adult male C57 and BTBR mice (n=6 per group) in a dedicated conditioning room where ambient light, sound, and human contact were tightly controlled.
Social preference chambers consisted of two polycarbonate boxes (13.5 cm wide×22.5 cm tall×31.0 cm deep), floored with rough-textured black ABS plastic, and connected to one another by a 1.25″ PVC T-junction. An infrared photobeam emitter/detector array was mounted at each intersection of the T-junction and each preference compartment, and as a mouse traversed the apparatus, it would break the photobeam upon entry to or exit from each preference compartment. Beam breaks started or stopped a counter on an interfaced computer, allowing automated collection of time spent in each compartment. […]

Data set [2] concerns C57 and BTBR mice. Put plainly: Conditioned place preference. In kind it is in vivo, mouse. As to the method:
The same 2-compartment chambers as described above in the social preference studies for conditioned place preference. For these studies, compartments are differentiated by floor texture (rough black plastic vs steel punch plate) and wall pattern (vertical vs. horizontal stripes.) An initial preference/habituation test was first run where mice were able to freely traverse the apparatus for 30 minutes. The following day, mice were assigned to receive saline in one compartment and drug in the other. Saline pairings occurred in the morning, drug pairings occurred in the afternoon, and were separated by at least 4 hours, during which time mice returned to their home cages. Three such pairings were performed, where mice were injected, returned to the home cage for a 15 min pretreatment period, then confined to the injection-appropriate compartment for 30 minutes. Half the subjects (within strain) received drug pairings on the plastic floor+vertical stripes side, and the other half received drug pairings on the punch plate floor+horizontal stripes side. […] The post-conditioning preference test was identical to the initial preference/habituation session, where mice were freely able to traverse the apparatus for 30 minutes. Time spent in each compartment was recorded, and expressed as a preference score for the drug paired side (calculated as time spent in that compartment during the post-test—time spent there during the pre-test.) All preference and conditioning sessions were conducted under the same low light conditions as in the social preference tests.

For data set [3], the system named is C57 and BTBR mice. Put plainly: Social preference procedure: novelty preference test. The following applies: 1 mg/kg IP. In kind it is in vivo, mouse. As to the method: as §1, §2
Social preference chambers consisted of two polycarbonate boxes (13.5 cm wide×22.5 cm tall×31.0 cm deep), floored with rough-textured black ABS plastic, and connected to one another by a 1.25″ PVC T-junction. An infrared photobeam emitter/detector array was mounted at each intersection of the T-junction and each preference compartment, and as a mouse traversed the apparatus, it would break the photobeam upon entry to or exit from each preference compartment. Beam breaks started or stopped a counter on an interfaced computer, allowing automated collection of time spent in each compartment. At the end of each test, data were reported as time (in seconds) spent in each compartment, the number of entries into each compartment, and the average time spent in each compartment following an entry. Social preference tests were conducted in an iterative manner, with each test subject completing four distinct phases as described below. Between testing sessions, chambers were sanitized by wiping the insides with a disinfectant product provided by the UAMS Department of Laboratory Animal Medicine. At the end of the week (upon completion of all phases of the procedure), each apparatus was disassembled and all parts were sanitized. No food or water were available during social preference sessions, but were available in the home cage immediately afterwards. […]

Data set [4] concerns C57 and BTBR mice. The data set can be described thus: Compartment entries during social novelty test (proxy for locomotor stimulant effects). In kind it is in vivo, mouse. The following applies: 1 mg/kg, C57 mice, relative to saline. From the text: (§3) Social preference chambers consisted of two polycarbonate boxes (13.5 cm wide×22.5 cm tall×31.0 cm deep), floored with rough-textured black ABS plastic, and connected to one another by a 1.25″ PVC T-junction. An infrared photobeam emitter/detector array was mounted at each intersection of the T-junction and each preference compartment, and as a mouse traversed the apparatus, it would break the photobeam upon entry to or exit from each preference compartment. Beam breaks started or stopped a counter on an interfaced computer, allowing automated collection of time spent in each compartment. At the end of each test, data were reported as time (in seconds) spent in each compartment, the number of entries into each compartment, and the average time spent in each compartment following an entry. Social preference tests were conducted in an iterative manner, with each test subject completing four distinct phases as described below. Between testing sessions, chambers were sanitized by wiping the insides with a disinfectant product provided by the UAMS Department of Laboratory Animal Medicine. At the end of the week (upon completion of all phases of the procedure), each apparatus was disassembled and all parts were sanitized. No food or water were available during social preference sessions, but were available in the home cage immediately afterwards.
Quantifying total entries into the preference compartments provides a proxy measurement for locomotor stimulant effects of the various doses of the various test drugs. This establishes a limit to the drug doses that can be tested in the social preference procedure, as induction of locomotor stimulant effects confounds preference assessments (because mice stop attending to the social stimuli in each compartment and instead spend their time engaged in locomotor behavior.) Motor activity varies across the distinct phases of social preference testing, in part because the habituation session is twice as long (30 minutes) as the novelty, sociability, and social novelty tests (15 minutes each), but also because mice emit high levels of exploratory behavior in novel environments. Thus, as familiarity with the test apparatus increases over successive exposures to the chambers, the number of entries decreases.
(Note that entries were collected for every test, but drug effects on entries during earlier phases may be less reliable due to the confounding influence of changing familiarity with the apparatus across phases.)

Data set [5] relates to C57 and BTBR mice. The data set can be described thus: Social preference procedure: sociability test. Conditions: 1 mg/kg IP. In kind it is in vivo, mouse. As to the method: as §1, §2, §3
A single sociability session occurred the day after the novelty preference test, where one compartment contained a wire mesh cup with a dummy mouse inside while the other compartment contained a male NIH Swiss stranger mouse inside the previously empty cup (see FIG. 4). […] The position of the dummy mouse (left or right compartment) remained the same for each subject as during the novelty test the day before, thereby counterbalancing the position of the stranger mouse across subjects. NIH Swiss stranger mice were similar in mass and appearance to the dummy PVC mice, and were housed separately from the experimental subjects (C57 and BTBR mice) in the colony facility. The first time the experimental subjects ever encountered the stranger mice was when they entered the compartment where they were contained. During this session, mice were weighed, administered the same injection as the day before, and returned to their home cage for a 30 min pretreatment period. Mice were then introduced into the T-junction and allowed to explore both preference compartments for 15 minutes. Sociability tests always occurred on Wednesdays or Thursdays to prevent any weekend testing.

A further data set has as its target DAT (Homo sapiens, UniProt Q01959). Put plainly: QSAR model predicted IC50, DAT. Conditions: ratio = 1/DAT IC50:1/SERT IC50, from predicted IC50. As to the method:
In silico studies (QSAR and docking) are useful tools to understand drug mechanisms, and they are relatively cheaper and faster than experiments. A QSAR model was created for each monoamine transporter. Additionally, the docking properties of phenethylamines were investigated.
QSAR: DAT, SERT and NET IC50 values were collected from the literature for 73 phenethylamines. Three different software's were used for descriptor calculations, and almost 2000 descriptors were calculated. Highly correlated descriptors were eliminated before multi-linear regression (MLR) analysis. All descriptors were merged with experimental inhibition values in QSARiNS software. The multi-Criteria Decision-Making tool of QSARiNS was used to pick the best model.
The predicted IC^50 (mM) values of the test molecules generated based on the QSAR developed as described above are presented in Table 4.

[6] abbreviates: 3 mg/kg, x3 pairings, C57 and BTBR mice.

Chain of DAT (Q01959 whole entry, species assumed): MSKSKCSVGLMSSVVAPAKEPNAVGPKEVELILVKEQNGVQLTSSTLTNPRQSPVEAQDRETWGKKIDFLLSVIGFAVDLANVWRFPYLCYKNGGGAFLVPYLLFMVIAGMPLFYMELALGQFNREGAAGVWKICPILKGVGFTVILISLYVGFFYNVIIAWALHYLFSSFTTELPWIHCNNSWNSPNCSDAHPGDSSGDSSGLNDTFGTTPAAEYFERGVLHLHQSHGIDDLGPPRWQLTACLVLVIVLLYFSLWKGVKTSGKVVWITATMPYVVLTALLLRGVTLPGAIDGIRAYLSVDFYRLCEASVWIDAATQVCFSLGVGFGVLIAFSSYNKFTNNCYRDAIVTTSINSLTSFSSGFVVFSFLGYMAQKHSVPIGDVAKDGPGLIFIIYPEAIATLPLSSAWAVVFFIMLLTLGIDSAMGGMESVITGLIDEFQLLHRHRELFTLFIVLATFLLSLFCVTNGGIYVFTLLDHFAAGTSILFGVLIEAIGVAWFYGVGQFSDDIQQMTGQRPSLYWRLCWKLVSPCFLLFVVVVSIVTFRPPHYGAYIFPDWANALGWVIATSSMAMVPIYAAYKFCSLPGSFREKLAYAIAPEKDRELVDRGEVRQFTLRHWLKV

Regarding `c1cc2c(cc1CC1CCCN1)OCO2` (racemic) [(R/S)-I, (R/S)-2-[(2H-1,3-benzodioxol-5-yl)methyl]pyrrolidine], the “pro-social response (time with stranger mouse, social novelty preference)” value is recorded as “strongest pro-social response” in the data set with C57 and BTBR mice [1] (1 mg/kg); “the response drops” in the data set on C57 and BTBR mice [1] (1.8 mg/kg).

`CNC(C)Cc1ccc2c(c1)OCO2` (racemic) [racemic MDMA, 1-(1,3-benzodioxol-5-yl)-N-methylpropan-2-amine, reference compound]: the “place conditioning (place preference)” value with C57 and BTBR mice [2] (setting [6]) was “significant place preferences”. The “effect on novelty preference (time spent with dummy mouse)” value with C57 and BTBR mice [3] is reported as “no systematic effects”. The “total entries during social novelty test” value in the data set with C57 and BTBR mice [4] is given as “no effect”. Further, the “sociability (time spent with stranger mouse)” value in the data set with C57 and BTBR mice [5] (BTBR mice) is “minor increase in the sociability response”; in the data set with C57 and BTBR mice [5] (C57 mice), “no impact”.

With `CN[C@H](C)Cc1ccc2c(c1)OCO2` [R-MDMA, reference compound], on DAT, the “DAT/SERT (calculated)” value is 0.010. Besides, the “place conditioning (place preference)” value in the data set with C57 and BTBR mice [2] (10 mg/kg, either strain) was “no significant effects”.

Turning to `CN[C@@H](C)Cc1ccc2c(c1)OCO2` [S-MDMA, reference compound], the “DAT/SERT (calculated)” value at DAT is listed as 0.383. Also, the “place conditioning (place preference)” value with C57 and BTBR mice [2] (setting [6]) was “significant place preferences”.

Consider `CN[C@@H](C)Cc1ccccc1` [S-methamphetamine, reference compound], for which, in the data set with C57 and BTBR mice [2] (1.0 and 3.0 mg/kg, x3 pairings, C57 and BTBR mice), the “place conditioning (place preference)” value is given as “significant place preferences in C57 mice only”.

The values above are taken from patent US12042478B2, “(R)-2-[(2H-1,3-benzodioxol-5-yl)methyl]pyrrolidine and processes for preparation, compositions and uses thereof” (Pharmala Biotech Inc., priority 2022, dated 2024).
